Results on one compound are retold here after article PMC5120204, “Identification of an orally active small-molecule PTHR1 agonist for the treatment of hypoparathyroidism” (Nature Communications, 2016).

Entries after “also recorded” stand apart in the source; their conditions may differ.

A short description of data set [1]: Pharmacokinetics in OVX rats. The format is in vivo. The settings on record: female, Crl:CD(SD), rat, plasma. As to the method: OVX was carried out in 32-week-old female Crl:CD (SD) rats (Charles River Laboratories). Twelve weeks after surgery, lumbar vertebral BMD (L3–L5) was measured in vivo by dual-energy X-ray absorptiometry (DXA) using a DCS-600EX-IIIR bone densitometer (Hitachi Aloka Medical), and the rats were divided into five groups, each with a similar mean value of BMD and body weight. Sample sizes were determined based on previous experiments with hPTHs and a published study with ibandronate and eldecalcitriol in our laboratories[42] (n=7–10). Then, OVX rats were treated once daily intravenously (vehicle or PCO371 at 3 or 10 mg kg^−1) or orally (vehicle or PCO371 at 30 mg kg^−1) or subcutaneously [vehicle or hPTH(1–34) at 0.9 nmol kg^−1] for 12 weeks. Ten to twelve OVX rats were assigned to each dose group. Nine rats were assigned to the sham-operated control group and were treated with vehicle for PCO371. Ten per cent DMSO (Wako Pure Chemical Industries)/10% Kolliphor EL (Sigma-Aldrich) in 10% hydroxypropyl-β-cyclodextrin (HPCD; Nihon Shokuhin Kako)/0.752% glycine (Wako Pure Chemical Industries) buffer was used as vehicle for PCO371, and phosphate-citrate buffer (pH 6.0) was used as vehicle for hPTH(1–34). To label bone-forming surfaces, tetracycline ([…], Nippon Zenyaku Kogyo) was subcutaneously injected on Day 78 and calcein (8 mg kg^−1, Dōjindo Laboratories) was subcutaneously injected on day 83. Under isoflurane anaesthesia, jugular vein blood was collected immediately before and at 1, 2, 6, 10 and 24 h after administration on day 82 to measure plasma concentration of PCO371 or on day 84 to measure serum Ca levels (o-CPC method, Wako Pure Chemical Industries). Urine was collected for 24 h from metabolic cages on days 84–85 to measure urinary collagen type 1 cross-linked C-telopeptide (CTX) by using the RatLaps ELISA System (Immunodiagnostic Systems). Under isoflurane anaesthesia, blood was collected on day 85 from the abdominal aorta to measure serum osteocalcin level by using the Rat Osteocalcin ELISA System (GE Healthcare). The lumbar spine and bilateral femurs were excised after 12 weeks of treatment. The first lumbar vertebra (L1), 3rd to 5th lumbar vertebrae (L3–L5), the right femur, and the right tibia were preserved in 70% ethanol to measure bone histomorphometry and BMD (DCS-600EX; Hitachi Aloka Medical). Measurement of bone histomorphometry was performed by the Ito Bone Histomorphometry Institute (Niigata, Japan). The second lumbar vertebra (L2) was wrapped in saline-soaked gauze and stored at −80 °C until measurement. Ultimate compressive strength (N) of the L2 vertebra was measured by using a mechanical testing machine (TK-252C; Muromachi Kikai).

Data set [2] relates to 12 class B GPCRs (CGRP, calcitonin, CRF1, CRF2α, GLP-1, GLP-2, glucagon, secretin, GHRH, PAC1, VPAC1 and VPAC2). Briefly: Selectivity assay (Cerep), agonist and antagonist cAMP assays. It counts as cell-based. The settings on record: at 1 or 10 μmol l^−1; activity defined as >25% of positive control. The procedure:
Selectivity assays against class B GPCRs were performed by Cerep (France). Agonistic and antagonistic effects of PCO371 against a panel of 12 class B GPCRs (CGRP, calcitonin, CRF1, CRF2α, GLP-1, GLP-2, glucagon, secretin, GHRH, PAC1, VPAC1 and VPAC2) were examined at PCO371 concentrations of 1 and 10 μmol l^−1. The following cell lines were used; T47D (calcitonin), βTC6 (GLP-1), HT-29 (VPAC1, VPAC2), CHO (CGRP, CRF1, GLP-2, Glucagon, Secretin, GHRH and PAC1, recombinant), and HEK-293 (CRF-2, recombinant). Their antagonistic activity was measured in the presence of the control agonists shown in Supplementary Table 1. In agonist and antagonist experiments, intracellular cAMP levels were determined with the HTRF detection system. EC50 and IC50 values of control agonists or antagonists were calculated by non-linear regression analysis of the concentration-response curves generated with mean replicate values using Hill equation curve-fitting using the formula: equation (2).
Y=response, A=left asymptote of the curve, D=right asymptote of the curve, C=compound concentration, C50=EC50 or IC50, nH=slope factor. Agonistic activity of PCO371 at 1 or 10 μmol l^−1 was calculated as a per cent of the control agonist response; intracellular cAMP accumulation by PCO371 × 100/intracellular cAMP accumulation by the control agonist at the EC50 concentration. […]
(Changes in cAMP serve as a functional read-out for many G protein-coupled receptors.)

Data set [3] is described as follows: Pharmacokinetics in TPTX rats. It counts as in vivo, rat. As to conditions: female, Crl:CD(SD), rat, plasma, po.

What is called AUC is the area under the concentration-time curve, a measure of exposure. What is called half-life is the time in which the quantity being followed falls by half. Lower therefore signals rapid decline. Usually Cmax stands for the peak of the concentration-time curve. In general, Tmax refers to the time at which the peak concentration occurs. Consider `Cc1cc(N2C(=O)NC(=O)C2(C)C)cc(C)c1CCS(=O)(=O)N1CCC2(CC1)N=C(c1ccc(OC(F)(F)F)cc1)NC2=O` [PCO371, 1-{3,5-dimethyl-4-[2-({4-oxo-2-[4-(trifluoromethoxy)phenyl]-1,3,8-triazaspiro[4.5]dec-1-en-8-yl}sulfonyl)ethyl]phenyl}-5,5-dimethylimidazolidine-2,4-dione], for which the AUC came out at 15500 ng·h/mL in data set [1] (iv, i.v. 3 mg kg-1); 48700 ng·h/mL in data set [1] (iv, i.v. 10 mg kg-1); 29500 ng·h/mL in data set [1] (po, p.o. 30 mg kg-1); 464 ± 125 ng·h/mL in data set [3] (p.o. 2 mg kg-1, read-out: AUC); 1590 ng·h/mL in data set [3] (p.o. 6 mg kg-1, read-out: AUC); 9210 ng·h/mL in data set [3] (p.o. 18 mg kg-1, read-out: AUC). Also, the half-life is 144 ± 12 min in data set [1] (iv, i.v. 3 mg kg-1); 132 ± 12 min in data set [1] (iv, i.v. 10 mg kg-1); 150 ± 18 min in data set [1] (po, p.o. 30 mg kg-1); 414 ± 138 min in data set [3] (p.o. 2 mg kg-1); 294 ± 36 min in data set [3] (p.o. 6 mg kg-1); 282 ± 42 min in data set [3] (p.o. 18 mg kg-1). The Cmax in data set [1] (po, p.o. 30 mg kg-1) stood at 95.6 ± 84.4 ng/mL; in data set [3] (p.o. 2 mg kg-1, read-out: Cmax) it was 95.6 ± 84.4 ng/mL; in data set [3] (p.o. 6 mg kg-1, read-out: Cmax) it was 216 ± 103 ng/mL; in data set [3] (p.o. 18 mg kg-1, read-out: Cmax), 1630 ng/mL. Besides, the Tmax was determined as 1.4 ± 0.8 h in data set [1] (po, p.o. 30 mg kg-1); 1.4 ± 1 h in data set [3] (p.o. 2 mg kg-1, read-out: Tmax); 1.3 ± 0.6 h in data set [3] (p.o. 6 mg kg-1, read-out: Tmax); 3.7 ± 3.8 h in data set [3] (p.o. 18 mg kg-1, read-out: Tmax). In data set [2], the “agonistic and antagonistic activities against 12 class B GPCRs” value was “did not show agonistic or antagonistic activity; also recorded: did not exhibit activity”.
